This passage reports IC50 results from patent US20240116985A1, “STAPLED PEPTIDES AND METHODS THEREOF” (priority 2020, published 2024).

pIC50: −log10 of the molar value. Like-named read-outs stand apart in the source and are kept apart here. Where only a bound is given, the exact number is not on record here.

Assay [1] deals with T1, full-length beta-Catenin (Uniprot ID P35222) (Homo sapiens, UniProt P35222).
T1 construct: 10 nM full-length beta-Catenin (Uniprot ID P35222)
T1 sequence (P35222 1-781): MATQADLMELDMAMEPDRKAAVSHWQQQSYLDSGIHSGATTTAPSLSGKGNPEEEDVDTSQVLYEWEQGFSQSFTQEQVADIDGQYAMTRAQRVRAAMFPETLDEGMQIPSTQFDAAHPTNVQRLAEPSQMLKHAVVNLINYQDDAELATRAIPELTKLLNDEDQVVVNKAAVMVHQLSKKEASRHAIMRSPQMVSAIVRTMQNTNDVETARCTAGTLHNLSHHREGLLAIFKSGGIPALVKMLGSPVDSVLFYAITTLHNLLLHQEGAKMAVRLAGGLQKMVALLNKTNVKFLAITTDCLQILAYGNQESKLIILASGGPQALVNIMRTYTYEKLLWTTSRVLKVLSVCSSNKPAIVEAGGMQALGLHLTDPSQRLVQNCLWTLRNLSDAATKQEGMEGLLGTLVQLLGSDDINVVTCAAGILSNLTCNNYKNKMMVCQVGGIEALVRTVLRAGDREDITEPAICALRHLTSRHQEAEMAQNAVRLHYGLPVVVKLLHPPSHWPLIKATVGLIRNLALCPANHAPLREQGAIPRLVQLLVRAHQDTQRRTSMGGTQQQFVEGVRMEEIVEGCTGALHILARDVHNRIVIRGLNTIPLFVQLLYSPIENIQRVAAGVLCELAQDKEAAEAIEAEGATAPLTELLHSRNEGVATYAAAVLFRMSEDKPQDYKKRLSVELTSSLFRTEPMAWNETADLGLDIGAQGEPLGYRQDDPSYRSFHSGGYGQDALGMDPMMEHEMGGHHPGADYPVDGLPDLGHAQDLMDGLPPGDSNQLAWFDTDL
Description: Fluorescence polarization IC50 (beta-catenin / 5FAM-TCF4 10-53 competition). The format is binding. The note with it: fluorescence polarization; read-out: beta-Catenin FP IC50.

For assay [2], the target named is T2, beta-catenin/TCF4 engagement (Homo sapiens, UniProt P35222).
T2 construct: expressed in transfected cells; host or cells: HEK293
T2 sequence (P35222 1-781): T1 sequence (P35222 1-781)
Description: Nano-BRET target engagement assay (B-cat-Halo & TCF4-Luc in HEK293 cells). Type of assay: cell-based. The note with it: read-out: NanoBRET Abs IC50.

A further assay deals with COLO320DM cells. Type of assay: cell-based. The note with it: COLO320DM cells, read-out: COLO320DM Proliferation Abs IC50. How it is done: COLO320DM proliferation assay IC50: In some embodiments, inhibition of cell proliferation by provided technologies were assessed using cell lines related to or from certain conditions, disorders or diseases. In some embodiments, cell proliferation was assessed in COLO320DM cells. In some embodiments, assessment was performed using the following procedure: On Day 1, cultured COLO320DM cells in a T75 flask were trypsinized in 3 mL of 0.25% trypsin/EDTA for 5 min and quenched with 10 mL RPMI-1640+4% HI FBS assay media. The cells were spun down at 1200 rpm for 5 min, the cell pellet collected and re-suspended at 5000 cells/mL in assay media. Using a Combi liquid handler, cells were dispensed (50 uL, 250 cells/well) into three 384 well plates. Plates were incubated at 37° C., […]. On day 2, compounds were added. A liquid handling system was used to prepare the compound dilution and dispense compound into assay plates. The compounds were serially diluted 1/2 in 90% DMSO to create a 7 point dose curve. From compound plate, 100 nL of compound were dispensed directly into wells of the assay plates to create a dose curve starting at 20 uM and ending at 313 nM. Assay plates were incubated at 37° C., […]. On day 6, assay plates were removed from the incubator and allowed to sit at room temperature for 30 min. Using a liquid handler, 20 uL of CellTiter Glo reagent was added to each well. The assay plates were shaken for 2 min and allowed to sit on the bench for 10-15 minutes. The assay plates were read using the CellTiter Glo protocol on a GloMax microplate reader, and the data analyzed using GraphPad Prism.

On to `CC(=O)N1CCC[C@]12CC=CCCCC1(CCCC=CCCCOC(=O)N3CC[C@@](C(=O)N[C@@H](Cc4ccccc4C(F)(F)F)C(=O)N[C@@H](Cc4csc5ccccc45)C(=O)N[C@@H](C)C(N)=O)(C3)NC(=O)[C@H](CC(C)C)NC(=O)[C@H](Cc3ccccc3)NC(=O)[C@H](C)NC(=O)[C@H](CCC(=O)N3CCN(CC(F)(F)F)CC3)NC(=O)[C@H](Cc3cccc(C(=O)O)c3)NC(=O)[C@H](CC(=O)O)NC1=O)NC(=O)[C@H](CC(C)(C)C)NC(=O)[C@H](CC(=O)O)NC2=O` (stereo partly drawn) [I-2316, Ac-PL3-Asp-Npg-B5-Asp-3COOHF-[TfePpz]GlnR-Ala-Phe-Leu-PyrS2-2F3MeF-BztA-Ala-NH2], for which the pIC50 was 7.96 in assay [1], 5.80 in assay [2] (absolute IC50) and under 4.70 in the assay on COLO320DM cells (absolute IC50).

Consider `CC(=O)N1CCC[C@]12CC=CCCCC1(CCCC=CCCCOC(=O)N3CC[C@@](C(=O)N[C@@H](Cc4ccccc4C(F)(F)F)C(=O)N[C@@H](Cc4csc5ccccc45)C(=O)N[C@@H](C)C(N)=O)(C3)NC(=O)[C@H](CC(C)C)NC(=O)[C@H](Cc3ccccc3)NC(=O)[C@H](C)NC(=O)[C@H](CCC(=O)N3CCNC(=O)C3)NC(=O)[C@H](Cc3cccc(C(=O)O)c3)NC(=O)[C@H](CC(=O)O)NC1=O)NC(=O)[C@H](CC(C)(C)C)NC(=O)[C@H](CC(=O)O)NC2=O` (stereo partly drawn) [I-2318, Ac-PL3-Asp-Npg-B5-Asp-3COOHF-[2OxoPpz]GlnR-Ala-Phe-Leu-PyrS2-2F3MeF-BztA-Ala-NH2], for which the pIC50 was 8.30 in assay [1], 5.74 in assay [2] (absolute IC50) and under 4.70 in the assay on COLO320DM cells (absolute IC50).

For the compound `CC(=O)N1CCC[C@]12CC=CCCCC1(CCCC=CCCCOC(=O)N3CC[C@@](C(=O)N[C@@H](Cc4ccccc4C(F)(F)F)C(=O)N[C@@H](Cc4csc5ccccc45)C(=O)N[C@@H](C)C(N)=O)(C3)NC(=O)[C@H](CC(C)C)NC(=O)[C@H](Cc3ccccc3)NC(=O)[C@H](C)NC(=O)[C@H](CCC(=O)N3Cc4ccccc4C3)NC(=O)[C@H](Cc3cccc(C(=O)O)c3)NC(=O)[C@H](CC(=O)O)NC1=O)NC(=O)[C@H](CC(C)(C)C)NC(=O)[C@H](CC(=O)O)NC2=O` (stereo partly drawn) [I-2320, Ac-PL3-Asp-Npg-B5-Asp-3COOHF-[isoindoline]GlnR-Ala-Phe-Leu-PyrS2-2F3MeF-BztA-Ala-NH2], the pIC50 is 7.54 in assay [1], 5.57 in assay [2] (absolute IC50) and under 4.70 in the assay on COLO320DM cells (absolute IC50).

As to `COCCN(CCOC)C(=O)CC[C@@H]1NC(=O)[C@H](Cc2cccc(C(=O)O)c2)NC(=O)[C@H](CC(=O)O)NC(=O)C2(CCCC=CCCCOC(=O)N3CC[C@@](C(=O)N[C@@H](Cc4ccccc4C(F)(F)F)C(=O)N[C@@H](Cc4csc5ccccc45)C(=O)N[C@@H](C)C(N)=O)(C3)NC(=O)[C@H](CC(C)C)NC(=O)[C@H](Cc3ccccc3)NC(=O)[C@H](C)NC1=O)CCCC=CC[C@]1(CCCN1C(C)=O)C(=O)N[C@@H](CC(=O)O)C(=O)N[C@@H](CC(C)(C)C)C(=O)N2` (stereo partly drawn) [I-2322, Ac-PL3-Asp-Npg-B5-Asp-3COOHF-[bismethoxyethylamine]GlnR-Ala-Phe-Leu-PyrS2-2F3MeF-BztA-Ala-NH2], the pIC50 was 8.15 in assay [1], 5.74 in assay [2] (absolute IC50) and under 4.70 with COLO320DM cells (absolute IC50).

`CC(=O)N1CCC[C@]12CC=CCCCC1(CCCC=CCCCOC(=O)N3CC[C@@](C(=O)N[C@@H](Cc4ccccc4C(F)(F)F)C(=O)N[C@@H](Cc4csc5ccccc45)C(=O)N[C@@H](CCC(N)=O)C(=O)N[C@@H](CC(C)C)C(=O)N[C@@H](CC(C)C)C(N)=O)(C3)NC(=O)[C@H](CC(C)C)NC(=O)[C@H](Cc3ccccc3)NC(=O)[C@H](C)NC(=O)[C@H](C)NC(=O)[C@H](Cc3cccc(C(=O)O)c3)NC(=O)[C@H](CC(=O)O)NC1=O)NC(=O)[C@H](CC(C)(C)C)NC(=O)[C@H](CC(=O)O)NC2=O` (stereo partly drawn) [I-2380, Ac-PL3-Asp-Npg-B5-Asp-3COOHF-Ala-Ala-Phe-Leu-PyrS2-2F3MeF-BztA-Gln-Leu-Leu-NH2]: the pIC50 in assay [1] is 6.48; in assay [2] (absolute IC50), 5.57; with COLO320DM cells (absolute IC50) it was under 4.70.

Take `CC(=O)N1CCC[C@]12CC=CCCCC1(CCCC=CCCCOC(=O)N3CC[C@@](C(=O)N[C@@H](Cc4ccccc4C(F)(F)F)C(=O)N[C@@H](Cc4csc5ccccc45)C(=O)N[C@@H](CCC(=O)N(C)C)C(N)=O)(C3)NC(=O)[C@H](CC(C)C)NC(=O)[C@H](Cc3ccccc3)NC(=O)[C@H](C)NC(=O)[C@H](C)NC(=O)[C@H](Cc3cccc(C(=O)O)c3)NC(=O)[C@H](CC(=O)O)NC1=O)NC(=O)[C@H](CC(C)(C)C)NC(=O)[C@H](CC(=O)O)NC2=O` (stereo partly drawn) [I-2532, Ac-PL3-Asp-Npg-B5-Asp-3COOHF-Ala-Ala-Phe-Leu-PyrS2-2F3MeF-BztA-Me2Gln-NH2]: the pIC50 in assay [1] is 7.85; in assay [2] (absolute IC50), 5.35; in the assay on COLO320DM cells (absolute IC50), under 4.70.

Regarding `CCCC[C@@H]1NC(=O)[C@H](Cc2ccccc2)NC(=O)[C@H](C)NC(=O)[C@H](C)NC(=O)[C@H](Cc2cccc(C(=O)O)c2)NC(=O)[C@H](CC(=O)O)NC(=O)C2(CCCC=CCCCOC(=O)N3CC[C@@](C(=O)N[C@@H](Cc4ccccc4C(F)(F)F)C(=O)N[C@@H](Cc4csc5ccccc45)C(=O)N[C@@H](CCC(=O)N(C)C)C(N)=O)(C3)NC1=O)CCCC=CC[C@]1(CCCN1C(C)=O)C(=O)N[C@@H](CC(=O)O)C(=O)N[C@@H](CC(C)(C)C)C(=O)N2` (stereo partly drawn) [I-2533, Ac-PL3-Asp-Npg-B5-Asp-3COOHF-Ala-Ala-Phe-nLeu-PyrS2-2F3MeF-BztA-Me2Gln-NH2], the figures for the pIC50 (in assay [1]; in assay [2] (absolute IC50); in the assay on COLO320DM cells (absolute IC50)) were 7.55, 5.21 and under 4.70, respectively.

On to `CC(=O)N1CCC[C@]12CC=CCCCC1(CCCC=CCCCOC(=O)N3CC[C@@](C(=O)N[C@@H](Cc4ccccc4C(F)(F)F)C(=O)N[C@@H](Cc4csc5ccccc45)C(=O)N[C@@H](CCC(=O)N4CCOCC4)C(N)=O)(C3)NC(=O)[C@H](CC(C)C)NC(=O)[C@H](Cc3ccccc3)NC(=O)[C@H](C)NC(=O)[C@H](C)NC(=O)[C@H](Cc3cccc(C(=O)O)c3)NC(=O)[C@H](CC(=O)O)NC1=O)NC(=O)[C@H](CC(C)(C)C)NC(=O)[C@H](CC(=O)O)NC2=O` (stereo partly drawn) [I-2541, Ac-PL3-Asp-Npg-B5-Asp-3COOHF-Ala-Ala-Phe-Leu-PyrS2-2F3MeF-BztA-MorphGln-NH2], for which the pIC50 in assay [1] was 7.68; in assay [2] (absolute IC50), 5.33; with COLO320DM cells (absolute IC50) it was under 4.70.

In the case of `CCCC[C@@H]1NC(=O)[C@H](Cc2ccccc2)NC(=O)[C@H](C)NC(=O)[C@H](C)NC(=O)[C@H](Cc2cccc(C(=O)O)c2)NC(=O)[C@H](CC(=O)O)NC(=O)C2(CCCC=CCCCOC(=O)N3CC[C@@](C(=O)N[C@@H](Cc4ccccc4C(F)(F)F)C(=O)N[C@@H](Cc4csc5ccccc45)C(=O)N[C@@H](CCC(=O)N4CCOCC4)C(N)=O)(C3)NC1=O)CCCC=CC[C@]1(CCCN1C(C)=O)C(=O)N[C@@H](CC(=O)O)C(=O)N[C@@H](CC(C)(C)C)C(=O)N2` (stereo partly drawn) [I-2542, Ac-PL3-Asp-Npg-B5-Asp-3COOHF-Ala-Ala-Phe-nLeu-PyrS2-2F3MeF-BztA-MorphGln-NH2], the pIC50 in assay [1] was 7.64; in assay [2] (absolute IC50), 5.40; in the assay with COLO320DM cells (absolute IC50), under 4.70.

On to `CC(=O)N1CCC[C@]12CC=CCCCC1(CCCC=CCCCOC(=O)N3CC[C@@](C(=O)N[C@@H](Cc4ccsc4)C(=O)N[C@@H](Cc4csc5ccccc45)C(=O)N[C@H](CO)C(=O)N[C@@H](C)C(N)=O)(C3)NC(=O)[C@@H](CO)NC(=O)[C@H](Cc3ccccc3)NC(=O)[C@H](C)NC(=O)C(C)(C)NC(=O)[C@H](Cc3cccc(C(=O)O)c3)NC(=O)[C@H](CC(=O)O)NC1=O)NC(=O)[C@H](CC(C)(C)C)NC(=O)[C@H](CC(=O)O)NC2=O` (stereo partly drawn) [I-2576, Ac-PL3-Asp-Npg-B5-Asp-3COOHF-Aib-Ala-Phe-dSer-PyrS2-3Thi-BztA-dSer-Ala-NH2], for which the pIC50 in assay [1] is 8.22; in assay [2] it was 4.79; in the assay on COLO320DM cells it was under 4.70.
